Source: ChEMBL document CHEMBL3616398, “Recent advances on the synthesis of hepatitis C virus NS5B RNA-dependent RNA-polymerase inhibitors” (Eur J Med Chem, 2015)

Legend:
Hepatitis C virus [1] = test: Antiviral activity against HCV genotype 1b infected in human Ava.5 cells after 3 days assessed as protection from virus-induced cytotoxicity by MTT assay; type: functional, organism-based, Hepacivirus hominis; settings: Ava5, 72 h
[2] = Inhibition of HCV genotype 1b NS5B RNA dependent RNA polymerase assessed as inorganic pyrophosphate generation by luminometry; parameters: species or system Hepatitis C virus subtype 1b
Hepatitis C virus [3] = test: Antiviral activity against HCV genotype 1b replicon system; type: functional, organism-based, Hepacivirus hominis

IC50 [2] [µM] | IC50 (Hepatitis C virus [3]) [µM] | SMILES | EC50 (Hepatitis C virus [1]) [µM]
8.77 |  | O=C(NCCCc1ccccc1)c1nc2ccccc2c(=O)n1O | 17.5
 | 8.3 | Cc1nc2c(s1)CCCn1c-2c(C2CCCCC2)c2ccc(C(=O)O)cc21 | 
